Assay [1] has as its system mGlu2/3 receptor. The note with it: rat forced swim test, normal animals; cited from earlier work.
Assay [2] has as its system mGlu2/3 receptor. The settings on record: mouse tail-suspension test, normal animals; cited from earlier work.
Assay [3] relates to central mGlu2 and mGlu3 receptors. The note with it: target-specific manner; cited from earlier work.
For assay [4] the following is noted: C57B16/J mice, FST; cited from earlier work.
For assay [5] the following is noted: cited from earlier work; for activity in the tail suspension test: Helpless (H) mice; for antidepressant effect: helpless mice.
A further assay deals with group II mGlu receptors. The settings on record: treated mice; cited from earlier work.
The next assay concerns mGlu2. The note with it: cited from earlier work.
Assay [6] deals with group II mGlu receptors (mGlu2 and mGlu3). The note with it: cited from earlier work.
The test system is the same in assay [7]. The settings on record: CFS model; cited from earlier work.
A further assay concerns the target T1, human mGlu2 (Homo sapiens, UniProt Q14416).
T1 construct: expressed in transfected cells; host or cells: HEK-293 stably co-expressing GIRK channels
Description: mGlu GIRK cell-based thallium flux assay, human mGlu2. The note with it: HEK-293 cells co-expressing human mGlu2 and GIRK, EC80 glutamate, single experiment.

The target in another assay is T2, human mGlu3 (Homo sapiens, UniProt Q14832).
T2 construct: expressed in transfected cells; host or cells: HEK-293 stably co-expressing GIRK channels
Description: mGlu GIRK cell-based thallium flux assay, human mGlu3. The settings on record: HEK-293 cells co-expressing human mGlu3 and GIRK, EC80 glutamate, single experiment. As to the method: Human embryonic kidney (HEK-293) cell lines stably co-expressing human or rat mGlu2 and G protein-coupled inwardly rectifying potassium (GIRK) channels, or human mGlu3 and GIRK, were used for in vitro evaluation of compound activity in thallium flux assay using a fluorescent thallium indicator dye.
The day before the assay, GIRK cells co-expressing human mGlu3, human or rat mGlu2, as described above, were plated in black-walled, clear-bottomed, amine-coated 384-well plates at a density of 15,000 cells/[…]/well in the assay medium (glutamine-depleted basal DMEM supplemented with 10% dialyzed FBS, 20 mM HEPES, 1 mM sodium pyruvate). Cells were incubated at 37° C. in the presence of 5% CO2. The next day, assay buffer (Hanks balanced salt solution, 20 mM HEPES, 4.16 mM sodium bicarbonate, pH 7.2) was prepared to dilute compounds and Thallos AM fluorescent dye solution. The 2× Thallos dye solution (final concentration 0.34 μM to the cells) was prepared by mixing the dye stock (2.97 mM in DMSO) to 1:1 with 10% pluronic acid before adding to the assay buffer. Cells were washed with assay buffer using a microplate washer to remove the medium, resulting in 20 μL of buffer remaining in each well. […] During the cell dye loading incubation period, a 10-point concentration serial dilution of compound was created from a 10 mM DMSO compound stock by performing a 1:3 serial dilution in DMSO using the Bravo liquid handler. The 2× compound plate was generated by transferring 0.24 μL of the diluted compound in each well to a daughter plate using an Echo acoustic liquid handler. This is further diluted in 40 μL assay buffer, resulting in a range from […] to 1.5 nM final concentration in the assay. The agonist plate (5×) was prepared to include EC80 glutamate concentration (a concentration to elicit 80% of a maximally effective glutamate concentration) in thallium buffer (125 mM sodium bicarbonate, 1 mM magnesium sulfate, 1.8 mM calcium sulfate, 5 mM glucose, 10 mM HEPES, pH 7.2, 12.5 mM thallium sulfate).
After dye-loading, cell plates were washed with assay buffer to remove excess extracellular dye using a microplate washer, resulting in 20 μL of buffer remaining in each well. After a ten-minute equilibration period, cell, compound and agonist plates were loaded into a Hamamatsu μCell kinetic imaging plate reader equipped with liquid handler to monitor fluorescence changes at 480 nm excitation and 540 nm emission settings. Briefly, after collection of baseline fluorescence, 20 μL of compound was added and incubated for two minutes and twenty seconds. This is immediately followed by adding 10 μL of glutamate-thallium buffer to the wells containing compound. The fluorescent signal was monitored an additional 2.5 minutes after the glutamate addition. Multiple reference wells containing no compound received either no glutamate (for a baseline reference), EC80 glutamate, or ECmax glutamate (for normalization to maximum response). […] Each compound concentration series occurred one time in each plate, and replicates from two or three plates were used in each experimental run. Thallium solutions were handled and disposed of according to guidelines from the Vanderbilt University Chemical Safety department.
Data were normalized using a static ratio function (F/F0) by dividing every fluorescent measurement by the initial fluorescent value for the corresponding well. The increase in signal resulting from the glutamate/thallium addition of the second add was measured by determining the slope from 3 seconds to 13 seconds after the addition. The average of all baseline slopes (no compound, no glutamate) was determined and this value was subtracted from all other slope values. The average of all ECmax slopes was determined and this value was used to normalize the baseline-corrected slopes to a percent max value (% Emax).

The conditions of assay [8]: dominant-submissive test; cited from earlier work.
Assay [9] has as its system mGlu2/3 receptor. The settings on record: learned helplessness test; treatment for 7 days; cited from earlier work.
For assay [10] the following is noted: olfactory bulbectomized rats; repeated administration for 14 days; cited from earlier work.
The conditions of assay [11]: social isolation reared mice; cited from earlier work.

Structures are written as SMILES. Where two headings read alike, the source gives them in different places.

T2 sequence (Q14832 23-879): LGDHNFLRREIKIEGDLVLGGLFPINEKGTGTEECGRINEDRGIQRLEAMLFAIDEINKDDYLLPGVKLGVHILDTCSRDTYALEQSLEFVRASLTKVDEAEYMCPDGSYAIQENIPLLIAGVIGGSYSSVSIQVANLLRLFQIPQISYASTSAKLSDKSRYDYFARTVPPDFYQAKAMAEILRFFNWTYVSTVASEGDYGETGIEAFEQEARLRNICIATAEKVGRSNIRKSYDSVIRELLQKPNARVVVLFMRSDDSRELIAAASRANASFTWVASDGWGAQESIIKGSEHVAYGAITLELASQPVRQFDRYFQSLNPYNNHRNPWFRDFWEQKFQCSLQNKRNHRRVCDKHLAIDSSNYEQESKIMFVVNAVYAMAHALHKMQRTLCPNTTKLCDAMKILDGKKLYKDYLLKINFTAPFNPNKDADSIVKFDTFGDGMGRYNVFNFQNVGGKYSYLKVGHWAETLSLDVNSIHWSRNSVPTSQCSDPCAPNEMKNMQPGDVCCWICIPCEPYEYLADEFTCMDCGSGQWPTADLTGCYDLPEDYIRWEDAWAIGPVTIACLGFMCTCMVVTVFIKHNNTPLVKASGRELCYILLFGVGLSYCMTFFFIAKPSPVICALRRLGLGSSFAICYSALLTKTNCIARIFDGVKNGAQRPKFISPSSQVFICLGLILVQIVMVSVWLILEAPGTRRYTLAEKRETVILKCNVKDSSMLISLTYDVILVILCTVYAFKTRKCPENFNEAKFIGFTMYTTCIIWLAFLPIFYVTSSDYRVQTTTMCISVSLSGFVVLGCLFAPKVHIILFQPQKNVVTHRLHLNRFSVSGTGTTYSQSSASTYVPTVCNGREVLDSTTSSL
T1 sequence (Q14416 19-872): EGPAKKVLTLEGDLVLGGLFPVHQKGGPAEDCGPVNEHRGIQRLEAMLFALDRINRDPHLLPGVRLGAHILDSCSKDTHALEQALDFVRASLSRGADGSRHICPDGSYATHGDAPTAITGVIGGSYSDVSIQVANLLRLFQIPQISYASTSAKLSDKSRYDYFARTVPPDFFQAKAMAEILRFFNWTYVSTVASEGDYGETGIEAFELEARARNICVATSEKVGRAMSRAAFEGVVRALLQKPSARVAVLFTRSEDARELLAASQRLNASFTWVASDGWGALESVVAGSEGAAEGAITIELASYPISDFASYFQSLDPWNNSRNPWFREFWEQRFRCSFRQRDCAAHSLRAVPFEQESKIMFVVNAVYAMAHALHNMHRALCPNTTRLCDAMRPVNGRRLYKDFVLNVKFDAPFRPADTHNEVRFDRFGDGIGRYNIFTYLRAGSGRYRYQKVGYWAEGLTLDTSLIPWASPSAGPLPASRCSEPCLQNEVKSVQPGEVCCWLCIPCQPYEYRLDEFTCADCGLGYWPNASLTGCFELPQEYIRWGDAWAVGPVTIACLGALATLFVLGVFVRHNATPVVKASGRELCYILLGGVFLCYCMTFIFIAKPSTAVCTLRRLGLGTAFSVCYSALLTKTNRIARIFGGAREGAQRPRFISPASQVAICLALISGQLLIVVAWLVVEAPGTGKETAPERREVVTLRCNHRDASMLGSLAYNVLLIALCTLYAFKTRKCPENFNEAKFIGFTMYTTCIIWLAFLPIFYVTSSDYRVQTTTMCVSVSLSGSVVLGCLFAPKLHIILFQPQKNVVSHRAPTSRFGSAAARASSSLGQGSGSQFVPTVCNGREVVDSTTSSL

For `N[C@](CC1c2ccccc2Oc2ccccc21)(C(=O)O)[C@H]1C[C@@H]1C(=O)O` [LY341495], the antidepressant-like effects result with mGlu2/3 receptor [1] and in the assay with mGlu2/3 receptor [2] was “Antidepressant-like effects” in each case. In [3], the “hypolocomotor effect of mGlu2/3 agonist (LY379268)” value is listed as “achieved the same result”. In addition, the immobility time entry in assay [4] is on record as “dose-dependently reduced”. Moreover, in [5], the “activity in the tail suspension test” value is listed as “active”. Further, the antidepressant effect result in assay [5] (acute administration) is “potent antidepressant effect”. Besides, in the assay on group II mGlu receptors, the marble-burying behavior entry was “significantly reduce”. Besides, the “LY566332 amplification of AP-induced neurodegeneration” value in the assay with mGlu2 is reported as “prevented”.

In the case of `CCS(=O)(=O)N(Cc1cccnc1)c1cccc(-c2ccc(C#N)cc2)c1` [LY566332], the AP-induced neurodegeneration result in the assay on mGlu2 is recorded as “amplified”.

Turning to `Cc1cc(-c2cccc(C3=Nc4cc(C)c(C(F)(F)F)cc4NC(=O)C3)c2)cc(C)n1` [Compound R04491533], the “hypolocomotor effect of mGlu2/3 agonist (LY379268)” value in [3] is listed as “reversed”. In addition, in [4], the immobility time entry is on record as “dose-dependently reduced”. Besides, in assay [5], the “activity in the tail suspension test” value is “active”.

With `CCCCCCCOC(=O)[C@@]1(F)[C@@H]2C[C@@H](OCc3ccc(Cl)c(Cl)c3)[C@@](N)(C(=O)O)[C@@H]21` [BCI-838], in [6] (three months of treatment), the “Dutch APP transgene-associated learning and memory impairment” value is “reversed”; the anxiolytic effects result was “anxiolytic effects”. Moreover, the “levels of monomeric and oAβ peptides in the hippocampus and cortex” value in assay [6] (three months of treatment, two AD mouse models) is listed as “decreased”. Besides, in assay [6] (wild-type and Alzheimer's diseased mice, 3 months), the “hippocampal progenitor cell proliferation” value is recorded as “stimulated”.

Consider `COCCCC/C(=N\OCCN)c1ccc(C(F)(F)F)cc1` [fluvoxamine], for which, in [7], the freezing behavior result is recorded as “significantly decreased”.

Consider `CN1C(=O)CN=C(c2ccccc2)c2cc(Cl)ccc21` [diazepam], for which the freezing behavior result in assay [7] is “significantly decreased”.

For orientation: IC50 means the midpoint of a concentration-inhibition curve. Low values mean higher potency, high ones lower potency. `O=C1NCc2c1cc(-c1ccc(F)cc1F)cc2-c1ccc(=O)n(C(F)F)c1` [Compound 40, 4-(1-(difluoromethyl)-6-oxo-1,6-dihydropyridin-3-yl)-6-(2,4-difluorophenyl)isoindolin-1-one] came in with an IC50 against human mGlu2 of 66 nM. The “Human mGlu3 GIRK IC50 (nM)” value on human mGlu3 is recorded as “Inactive”.

As for `Cc1nn(CC(C)(C)O)c(C)c1-c1cc(-c2ccc(F)cc2F)cc2c1CNC2=O` [Compound 41, 6-(2,4-difluorophenyl)-4-(1-(2-hydroxy-2-methylpropyl)-3,5-dimethyl-1H-pyrazol-4-yl)isoindolin-1-one], the IC50 on human mGlu2 is 435 nM; on human mGlu3 it was more than 10000 nM.

Turning to `Cc1cc(-c2cc(-c3ccc(F)cc3F)cc3c2CNC3=O)cnn1` [Compound 13, 6-(2,4-difluorophenyl)-4-(6-methylpyridazin-4-yl)isoindolin-1-one], 163 nM corresponded to half-maximal inhibition against human mGlu2 (IC50). Further, the “Human mGlu3 GIRK IC50 (nM)” value at human mGlu3 is “Inactive”.

Turning to `Cn1nc(C(F)(F)F)cc1-c1cc(-c2ccc(F)cc2F)cc2c1CNC2=O` [Compound 78, 6-(2,4-difluorophenyl)-4-(1-methyl-3-(trifluoromethyl)-1H-pyrazol-5-yl)isoindolin-1-one], the midpoint of inhibition against human mGlu2, the IC50, lay at 204 nM. The “Human mGlu3 GIRK IC50 (nM)” value on human mGlu3 is given as “Inactive”.

Consider `CNCCC(Oc1ccc(C(F)(F)F)cc1)c1ccccc1` (centres unmarked) [fluoxetine], for which the antidepressant effect result in assay [5] (chronic (21 days) treatment) is “full antidepressant effect”. In [8], the onset of effects result is “after two weeks”.

For `N[C@]1(C(=O)O)[C@H]2[C@@H](C[C@H]1OCc1ccc(Cl)c(Cl)c1)[C@]2(F)C(=O)O` [MGS0039], the antidepressant-like effects entry in the assay with mGlu2/3 receptor [1] is “Antidepressant-like effects”. Moreover, the antidepressant-like effects entry in the assay with mGlu2/3 receptor [2] is on record as “Antidepressant-like effects”. Besides, the “number of escape failures” value in the assay on mGlu2/3 receptor [9] is listed as “significantly reduced”. For the same compound, in assay [10], the “hyperactivity in the open field test” value is “attenuated” and the “learning deficit in the passive avoidance test” value is on record as “attenuated”. Further, the “increased immobility in the FST” value in assay [11] is “reversed”. Also, in the assay with group II mGlu receptors, the marble-burying behavior result was “reduced marble-burying behavior in a significant and dose dependent manner”; the spontaneous locomotor activity entry was “no significant change”. Moreover, the freezing behavior entry in assay [7] was “significantly decreased”.

The compound `O=C1NCc2c1cc(-c1ccc(F)cc1F)cc2N1CCS(=O)(=O)CC1` [Compound A3, 6-(2,4-difluorophenyl)-4-(1,1-dioxidothiomorpholino)isoindolin-1-one] showed an IC50 on human mGlu2 of 2970 nM. Besides, on human mGlu3, the “Human mGlu3 GIRK IC50 (nM)” value is listed as “Inactive”.

`O=C1NCc2c1cc(-c1ccc(F)cc1F)cc2-c1cnn(C2CC2)c1` [Compound 18, 4-(1-cyclopropyl-1H-pyrazol-4-yl)-6-(2,4-difluorophenyl)isoindolin-1-one] displayed an IC50 on human mGlu2 of 291 nM. Also, the “Human mGlu3 GIRK IC50 (nM)” value on human mGlu3 is reported as “Inactive”.

These data come from patent US20260226019A1, “NEGATIVE ALLOSTERIC MODULATORS OF METABOTROPIC GLUTAMATE RECEPTOR 2” (Vanderbilt University, priority 2023, published 2026).
